Test results reported in patent US6506339B1, “Method of sterilization” (Biomedical Design, Inc., priority 1997, dated 2003).
“And” between values parts separate entries of the source, which are not always exact repeats. Identical values can stand only once.

What was measured:
Format in all cases: cell-based
[1] = tested on: Bacillus subtilis (niger) spores; experiment: Sterilization without isopropyl alcohol at 55° C. (Example 4D)
Method: An experiment similar to that of Example 4A was carried out using a higher temperature of 55°. Bacillus subtilis (niger) spores at levels of 1.32×10^6 (Log10=6.12) were inoculated for approximately 10 minutes in sterile cups. Solutions (50 ml) of 5 and 50 mM EDC in 10 mM TRIS, 0.85% NaCl, pH 6.5 were prewarmed to 55° C. and then rapidly added to the cups. The cups were incubated at 55° C. for 1 and 10 hours; the solutions were then diluted and filtered in order to collect microorganisms. The filters were rinsed with a 0.1% peptone water solution and incubated on TSA plates for up to 14 days. The plates are examined daily for growth. […] This can be extrapolated to achieving complete kill in 2-3 hours. […] Although this cannot be extrapolated to complete kill over a greater length of time because of the low level of EDC remaining after 10 hours, it is expected that sterilization treatment using a concentration at least about 15 mM EDC at 55° C. for 10 hours would result in complete kill.

[2] = tested on: Bacillus Subtilis spores; experiment: Sterilization test, Bacillus subtilis spores in cups with or without fixed heart valves, 40° C. (Example 2); parameters: key: (+) Indicates growth; (−) indicates no growth or complete kill; settings: 20 mM EDC+1 mM Sulfo-NHS, 20% isopropyl alcohol
Method: Porcine aortic roots are fixed by cross-linking according to the method described in U.S. Pat. No. 5,447,536. After fixation, the valves are stored in 10 mM HEPES, 0.85% NaCl, 20% isopropyl alcohol, pH 7.4, at 4° C. The sterility tests described in the following examples are in most cases conducted in the presence of bioprosthetic heart valve tissue; when such tissue is not present, the solutions are simply filtered through a 0.45 micron filter attached to a funnel (filter funnel). The filters are then rinsed with peptone water to eliminate residual chemicals on the membrane that may prevent growth of the organisms tested. Such membrane filters are then incubated on TSA plates at about 32° to 33° C., e.g. 32.5° C. When an aortic valve is inoculated with microorganisms for test purposes and then submitted to sterilization, the solution is filtered as described above. The aortic valve tissue is then washed for 20 minutes in a reciprocating shaker in the presence of peptone water containing Tween 80 in order to extract all indigenous spores or microorganisms from the tissue. This solution is filtered and then incubated as described above. All microbiological testing is performed in a biological laminar flow hood to prevent contamination. The shrinkage temperature and the proteolytic (collagenase and protease) degradation tests are conducted as previously described in the '536 patent. Resistance to calcification is assessed by subdermal implantation of sterilized leaflets and aortic wall coupons in young rats, as also described in the '536 U.S. patent.
A sterilization process similar to Example 1 is carried out using Bacillus Subtilis spores (˜10^6) inoculated in sterile cups some of which contain cross-linked heart valves that had been fixed by a process according to U.S. Pat. No. 5,447,536. A 10 mM HEPES, 0.85% NaCl, pH 6.5 solution containing 20 mM EDC and 1 mM Sulfo-NHS in the presence of 20% isopropyl alcohol was added for various periods of time (treatment duration). The cups and the heart valves were maintained at 40° C. for the term of the treatment. The solutions were then filtered and the filters incubated for up to 7 days (incubation duration) at about 32-33° C. using Trypticase Soy Agar (TSA) plates. All inoculations were done in duplicate.

[3] = tested on: spores of Bacillus subtilis; experiment: Effect of EDC concentration, temperature and duration on spores on cross-linked tissue (Example 4); settings: 20% IPA
Method: The following experiment was designed to test the effect of EDC concentration, of temperature and of duration of incubation on the inactivation of spores of Bacillus subtilis. The EDC concentrations tested were 5, 12.5 and 20 mM; the temperatures were 25, 32.5 and 40° C. for 4, 24 and 44 hours of incubation. […] Spores of Bacillus subtilis (about 2.5×10^5 per sample) were inoculated on tissue that had been cross-linked using the fixation method described in the '536 patent. The spores were allowed to contact the tissue for 10 minutes, after which time 50 ml of a solution of EDC at one of the concentrations indicated above was added to each cup containing the tissue plus the spores, and incubation was carried out at the respective temperatures and for the respective lengths of time. After such incubation for either 4, 24 or 44 hours, the solutions were filtered to recover the spores, and these were incubated on TSA plates for 2 weeks at 32 to 33° C. The tissue samples were washed with a solution containing a surfactant to fully extract the spores from the tissue, and the resulting solutions were filtered. After washing with 0.1% peptone water, the filters were incubated on TSA plates for 2 weeks at 32 to 33° C. in order to determine the number of survivors on or in the tissue. The colonies were enumerated for both the EDC solutions and the tissue wash solutions, and the results (numbers of colony forming units) were added.

[4] = 5 mM EDC, 25° C., 4 hrs, about 2.5×10^5 spores on tissue
[5] = 5 mM EDC, 25° C., 44 hrs, about 2.5×10^5 spores on tissue
[6] = 5 mM EDC, 32.5° C., 24 hrs, about 2.5×10^5 spores on tissue
[7] = 5 mM EDC, 40° C., 4 hrs, about 2.5×10^5 spores on tissue
[8] = 12.5 mM EDC, 25° C., 24 hrs, about 2.5×10^5 spores on tissue
[9] = 12.5 mM EDC, 32.5° C., 4 hrs, about 2.5×10^5 spores on tissue
[10] = 12.5 mM EDC, 32.5° C., 24 hrs, about 2.5×10^5 spores on tissue (conditions 8-11, replicates), hydrochloride
[11] = 12.5 mM EDC, 32.5° C., 44 hrs, about 2.5×10^5 spores on tissue
[12] = 12.5 mM EDC, 40° C., 24 hrs, about 2.5×10^5 spores on tissue
[13] = 20 mM EDC, 25° C., 4 hrs, about 2.5×10^5 spores on tissue
[14] = 20 mM EDC, 25° C., 44 hrs, about 2.5×10^5 spores on tissue
[15] = 20 mM EDC, 32.5° C., 24 hrs, about 2.5×10^5 spores on tissue

In the case of `CCN=C=NCCCN(C)C.Cl` [EDC, 1-ethyl-3(3-dimethylaminopropyl)carbodiimide hydrochloride], the log reduction ([1]; 5 mM EDC, 1 hour, 1.32×10^6 spores, no isopropyl alcohol) is reported as 0.512, the log reduction ([1]; 5 mM EDC, 10 hours, 1.32×10^6 spores, no isopropyl alcohol) is reported as 4.46 and the inactivation of spores ([1]; 50 mM EDC, 10 hours, 1.32×10^6 spores, no isopropyl alcohol) is reported as “effectively inactivated these spores”. The “time to complete kill (extrapolated)” value ([1]; 50 mM EDC, extrapolated from the one-hour log reduction) was 2 to 3 h, the log reduction ([1]; 50 mM EDC, one hour, 1.32×10^6 spores, no isopropyl alcohol) was 3.04 and the “growth on TSA plates” value ([2]; with valves, treatment 48 hours, incubation 1 Day) was “−”. For the same compound, the “growth on TSA plates” value ([2]; with valves, treatment 48 hours, incubation 7 Days) was “−”, the “growth on TSA plates” value ([2]; with valves, treatment 72 hours, incubation 1 Day) was “−” and the “growth on TSA plates” value ([2]; with valves, treatment 72 hours, incubation 7 Days) was “−”. The “growth on TSA plates” value ([2]; without valves, treatment 24 hours, incubation 1 Day) was “−”, the “growth on TSA plates” value ([2]; without valves, treatment 24 hours, incubation 7 Days) was “−” and the “growth on TSA plates” value ([2]; without valves, treatment 48 hours, incubation 1 Day) was “−”. The “growth on TSA plates” value ([2]; without valves, treatment 48 hours, incubation 7 Days) was “−”, the “growth on TSA plates” value ([2]; without valves, treatment 72 hours, incubation 1 Day) was “−” and the “growth on TSA plates” value ([2]; without valves, treatment 72 hours, incubation 7 Days) was “−”. The “LOG REDUCTION” value [3, 4] was “.27”, the SURVIVORS [3, 4] was 135000 CFUs and the “LOG REDUCTION” value [3, 5] was 2.3. The SURVIVORS [3, 5] was 1300 CFUs, the “LOG REDUCTION” value [3, 6] was 3.0 and the SURVIVORS [3, 6] was 208 CFUs. For the same compound, the “LOG REDUCTION” value [3, 7] was 2.4, the SURVIVORS [3, 7] was 1100 CFUs and the SURVIVORS ([3]; 5 mM EDC, 40° C., 44 hrs, about 2.5×10^5 spores on tissue) was 21 CFUs. The “LOG REDUCTION” value [3, 8] was 3.0, the SURVIVORS [3, 8] was 225 CFUs and the “LOG REDUCTION” value [3, 9] was 1.6. For the same compound, the SURVIVORS [3, 9] was 5900 CFUs, the “LOG REDUCTION” value [3, 10] was 3.6 and 3.9 and 3.4 and 3.7 and the SURVIVORS [3, 10] was 57 CFUs and 34 CFUs and 94 CFUs and 44 CFUs. The “LOG REDUCTION” value [3, 11] was 3.9, the SURVIVORS [3, 11] was 33 CFUs and the “LOG REDUCTION” value [3, 12] was 4.0. For the same compound, the SURVIVORS [3, 12] was 27 CFUs, the “LOG REDUCTION” value [3, 13] was 0.9 and the SURVIVORS [3, 13] was 31400 CFUs. The “LOG REDUCTION” value [3, 14] was 4.2, the SURVIVORS [3, 14] was 16 CFUs and the “LOG REDUCTION” value [3, 15] was 4.0. The SURVIVORS [3, 15] was 24 CFUs, the SURVIVORS ([3]; 20 mM EDC, 40° C., 4 hrs, about 2.5×10^5 spores on tissue) was 5 CFUs and the “LOG REDUCTION” value ([3]; 20 mM EDC, 40° C., 44 hrs, about 2.5×10^5 spores on tissue) was 5.4.
